# In paper PMC6277555, “Short Symmetric-End Antimicrobial Peptides Centered on β-Turn Amino Acids Unit Improve Selectivity and Stability” (Frontiers in Microbiology, 2018):
# Residues, ends and D or L forms follow the SMILES beside them.
# Legend:
# [1] = tested on: S. aureus ATCC 29213; type: cell-based, Staphylococcus aureus
# Method: The minimal inhibitory concentration (MIC) was determined according to a previously described method ([Chou et al., 2016]). Bacteria were cultured overnight to mid-log phase in MHB at 37°C and then diluted to give final concentrations ranging from 2 × 10^5 to 7 × 10^5 CFU/mL. Then, 50 μL of serial twofold dilutions of the peptides were added to each well in 96-well microtiter plates with a mixed solution containing 0.01% acetic acid and 0.2% bovine serum albumin (BSA, Sigma) was used to dissolve and dilute the peptides. Then, equal amounts of bacterial aliquots were incubated with the above peptide solution for 18-24 h at 37°C. The experiment was performed in triplicate using three replicates for each peptide and each bacterium. The broth was employed as a negative control and the broth with microbial cells was used as a positive control. The lowest concentration of peptide that prevented visible turbidity was defined as the MIC. The condition sensitivity of peptides was tested in an MIC assay in different environments, including salt sensitivity, thermal sensitivity and different pH values similar to our previous method ([[…] et al., 2008]; [Ma et al., 2012]). […] For the heat resistance experiments, the peptides were incubated at 100°C for 30 min and cooled on ice for 10 min. […] The determination methods for these MIC assays were same as described above. To test the effects of serum on the antimicrobial activities of the peptides, human serum was dissolved in MHB to reach final concentrations of 25 and 50%. The determination methods for these MIC assays were same as described above.
# [2] = tested on: Gram-negative and Gram-positive bacterial strains; assay: Geometric mean of MICs and therapeutic index; type: cell-based
# Method: (§1) The hemolytic activity of the peptides was detected using a previously described modified method ([Wang et al., 2015]). One milliliter of fresh hRBCs was obtained from a healthy donor (Zhihua Wang, Harbin, China) in a polycarbonate tube containing heparin. The collected hRBCs were centrifuged at 1000 × g for 5 min at 4°C and resuspended in PBS buffer (pH 7.2). The hRBCs were washed three times and then incubated with an equal volume of the respective peptide dissolved in PBS for 1 h at 37°C. Then, the hRBC suspension was placed into a 96-well microtiter plater with 50 μL of tested peptide solution at different concentrations and the mixture was incubated for 1 h at 37°C. […] The minimum hemolytic concentrations (MHCs) were defined as the peptide concentrations resulting in 5% hemolysis.
# (§2) The minimal inhibitory concentration (MIC) was determined according to a previously described method ([Chou et al., 2016]). Bacteria were cultured overnight to mid-log phase in MHB at 37°C and then diluted to give final concentrations ranging from 2 × 10^5 to 7 × 10^5 CFU/mL. Then, 50 μL of serial twofold dilutions of the peptides were added to each well in 96-well microtiter plates with a mixed solution containing 0.01% acetic acid and 0.2% bovine serum albumin (BSA, Sigma) was used to dissolve and dilute the peptides. Then, equal amounts of bacterial aliquots were incubated with the above peptide solution for 18–24 h at 37°C. The experiment was performed in triplicate using three replicates for each peptide and each bacterium. The broth was employed as a negative control and the broth with microbial cells was used as a positive control. The lowest concentration of peptide that prevented visible turbidity was defined as the MIC.
# [3] = tested on: hRBCs; assay: Hemolytic activity; type: cell-based, human; conditions: peptide concentration resulting in 5% hemolysis of hRBCs; PBS, 1 h, 37°C
# Method: as §1
# [4] = tested on: S. typhimurium ATCC 7731; type: cell-based, Salmonella entericaserovar Typhimurium
# Method: as §2
# [5] = tested on: B. subtilis CMCC 63501; type: cell-based, Bacillus subtilis
# Method: as §2
# [6] = tested on: S. pullorum C79-13; type: cell-based, Salmonella pullorum
# Method: as §2
# [7] = LPS-binding assay (BODIPY-TR-cadaverine displacement); set-up: species or system Escherichia coli; conditions: BC displacement at the MIC concentration; relative to 10 μg/mL polymyxin B
# Method: The binding affinities of peptides to LPS were examined using the BODIPY-TR-cadaverine fluorescent dye (BC, Sigma, United States) displacement assay, in which a probe bound to cell-free LPS results in dequenching of BC fluorescence. Stock solutions of LPS from E. coli O111:B4 (5 mg/mL; Sigma-Aldrich, China) and BC (2.5 mg/mL; Sigma-Aldrich, China) were prepared and diluted in Tris buffer (pH 7.4, 50 mM) to reach a final concentration of 50 μg/mL of LPS and 5 μg/mL BC. A 100 μL aliquot of the LPS-probe and peptide mixture (50 μL LPS and BC solutions at final concentrations of 25 μg/mL LPS and 2.5 μg/mL BODIPY-TR-cadaverine, 50 μL peptide with various concentrations ranging from 1 to 64 μM) was added in a sterile 96-well black plate. The fluorescence was measured on a spectrofluorophotometer (the Infinite 200 pro, Tecan, China) at excitation and emission wavelengths of 580 and 620 nm, respectively, with each test performed independently in triplicate. The values were converted to % ΔF (AU) using the following equation:
# where Fobs is the observed fluorescence at a given peptide concentration, F0 is the initial fluorescence of BC with LPS in the absence of peptides, and F100 is the BC fluorescence with LPS cells upon addition of 10 μg/mL polymyxin B, which is a prototype LPS binder and was used as a positive control.
# [8] = RP-HPLC retention time as measure of relative hydrophobicity; type: physicochemical; conditions: analytical RP-HPLC; hydrophobicity increases with retention time
# Method: These peptides' […] identified via matrix-assisted laser desorption/ionization time-of-flight mass spectrometry (MALDI-TOF MS, Linear Scientific Inc., United States), using α-cyano-4-hydroxycinnamic acid as the matrix. […] Quantitative peptides were dissolved in deionized water and stored at -20°C before the assessments. The rest of the peptides were stored as powders at -20°C to prevent peptide degradation. The structures and molecular weights of the peptides were verified by MALDI-TOF MS. […] The relative hydrophobicity of the symmetric-end peptides was reliably reflected by their different HPLC retention times, and the hydrophobicity increased with increasing HPLC retention times ([Lee et al., 2014]; [Zhu et al., 2014]). The HPLC retention times for […]
# [9] = tested on: S. faecalis ATCC 29212; type: cell-based, Streptococcus faecalis
# Method: as §2
structure (smiles),measurement,setting,value
CC[C@H](C)[C@H](N)C(=O)N[C@@H](Cc1c[nH]cn1)C(=O)N[C@@H](CCCCN)C(=O)N[C@@H](Cc1ccccc1)C(=O)N[C@@H](Cc1c[nH]c2ccccc12)C(=O)N[C@@H](CCCNC(=N)N)C(=O)N[C@@H](CS)C(=O)N[C@@H](CCCNC(=N)N)C(=O)N[C@@H](CCCNC(=N)N)C(=O)N[C@@H](CCCNC(=N)N)C(=O)N[C@@H](Cc1ccccc1)C(=O)N[C@@H](CS)C(=O)N[C@@H](CCCNC(=N)N)C(=O)N[C@@H](Cc1c[nH]c2ccccc12)C(=O)N[C@@H](Cc1ccccc1)C(=O)N[C@@H](CCCCN)C(=O)N[C@@H](Cc1c[nH]cn1)C(=O)N[C@H](C(N)=O)[C@@H](C)CC [PQ] (H-IHKFWRCRRRFCRWFKHI-NH2; N-terminus assumed),MIC,[1]; ATCC 29213,8 µM
same,"MIC, CaCl2",[1]; ATCC 29213,8 µM
same,"MIC, Control",[1]; ATCC 29213,8 µM
same,"MIC, FeCl3",[1]; ATCC 29213,8 µM
same,"MIC, Heat (100°C)",[1]; ATCC 29213,32 µM
same,"MIC, KCl",[1]; ATCC 29213,8 µM
same,"MIC, MgCl2",[1]; ATCC 29213,8 µM
same,"MIC, NH4Cl",[1]; ATCC 29213,8 µM
same,"MIC, NaCl",[1]; ATCC 29213,8 µM
same,"MIC, ZnCl2",[1]; ATCC 29213,8 µM
same,"MIC, pH 4.0","[1]; ATCC 29213, pH 4",8 μM
same,"MIC, pH 6.0","[1]; ATCC 29213, pH 6",8 μM
same,"MIC, pH 8.0","[1]; ATCC 29213, pH 8",8 μM
same,"MIC, pH 10.0","[1]; ATCC 29213, pH 10",8 μM
same,GM (geometric mean of the MIC values),[2]; all ten tested strains,9.8 µM
same,Therapeutic index,[2]; from MHC and GM,26.1
same,MHC (minimum hemolytic concentration),[3],>128 µM
same,MIC,[4],8 µM
same,MIC,[5],16 µM
same,MIC,[6],8 µM
same,"LPS binding, fluorescence (% ΔF)",[7],above 80%
same,Retained time (HPLC retention time),[8],12.385 min
same,MIC,[9],16 µM
